From patent US5112594A, “Kit for preparing a technetium-99m myocardial imaging agent” (Mallinckrodt Medical, Inc., priority 1991, dated 1992)

Test: Biodistribution Data of Selected Tc-99m(III) Complexes in Guinea Pigs
Assay type: in vivo
Details: for Heart/Blood / Heart/Liver: ratio

What does the source list for “trans-[1,2-bis[dihydro-2,2,5,5-tetramethyl-3(2H)furanone-4-methyleneamino]ethane]bis-[tris(2-(2-(1,3-dioxanyl))]ethylphosphine]technetium-99m(III) [Complex IV]”?
% Heart uptake (5 min): 0.8 % Injected dose/Organ; % Heart uptake (60 min): 0.9 % Injected dose/Organ; Heart/Blood (5 min): 5.4; Heart/Liver (5 min): 1.2; Heart/Blood (60 min): 58.6; Heart/Liver (60 min): 3.0

Which “% Heart uptake” value (5 min) does the source give for “trans-[1-[dihydro-2,2,5,5-tetramethyl-3(2H)furanthione-4-methyleneamino]-2-[dihydro-2,2,5,5-tetramethyl-3(2H)furanone-4-methyleneaminoethane]bis[tris(3-methoxypropyl)phosphine]technetium-99m(III) [Complex II]” here?
Its value is 0.9 % Injected dose/Organ.

What about the “% Heart uptake” value (60 min) of the same substance?
Its value is 0.8 % Injected dose/Organ.

And the Heart/Blood (5 min)?
Its Heart/Blood is 6.1.

And the Heart/Liver (5 min)?
The Heart/Liver was 1.6.

And the Heart/Blood (60 min)?
Its Heart/Blood is 26.5.

What about the Heart/Liver (60 min) of the same substance?
The Heart/Liver was 5.6.

Which “% Heart uptake” value (5 min) does the source give for “trans-[1,2-bis[dihydro-2,2,5,5-tetramethyl-3(2H)furanone-4-methyleneamino]ethane]bis[tris(3-methoxypropyl)phosphine]technetium-99m(III) [Complex I]” here?
The value was 0.8 % Injected dose/Organ.

And the “% Heart uptake” value (60 min)?
The value was 0.9 % Injected dose/Organ.

And the Heart/Blood (5 min)?
Its Heart/Blood is 4.6.

What about the Heart/Liver (5 min) of the same substance?
The Heart/Liver was 1.5.

What about the Heart/Blood (60 min) of the same substance?
The Heart/Blood was 35.6.

And the Heart/Liver (60 min)?
Its Heart/Liver is 6.6.

Which results are given for “trans-[1,2-bis[dihydro-2,2,5,5-tetramethyl-3(2H)furanthione-4-methyleneamino]ethane]-bis[tris(3-methoxypropyl)phosphine]technetium-99m (III) [Complex III]”?
% Heart uptake (5 min): 1.1 % Injected dose/Organ; % Heart uptake (60 min): 1.0 % Injected dose/Organ; Heart/Blood (5 min): 5.9; Heart/Liver (5 min): 0.9; Heart/Blood (60 min): 3.5; Heart/Liver (60 min): 1.5
